Experimental data: article PMC3577944 (Nature chemical biology, 2013)
Residue numbers refer to the chain shown, from its start. “Also recorded” adds a separate entry of the source. No end group written: not given here.

Columns and labels:
L3MBTL3 (3MBT) [1] = target: T1, L3MBTL3 (3MBT) (Homo sapiens, UniProt Q96JM7); format: binding; conditions: similar affinity to H4K20me histone peptides
T1 sequence (Q96JM7 225-555): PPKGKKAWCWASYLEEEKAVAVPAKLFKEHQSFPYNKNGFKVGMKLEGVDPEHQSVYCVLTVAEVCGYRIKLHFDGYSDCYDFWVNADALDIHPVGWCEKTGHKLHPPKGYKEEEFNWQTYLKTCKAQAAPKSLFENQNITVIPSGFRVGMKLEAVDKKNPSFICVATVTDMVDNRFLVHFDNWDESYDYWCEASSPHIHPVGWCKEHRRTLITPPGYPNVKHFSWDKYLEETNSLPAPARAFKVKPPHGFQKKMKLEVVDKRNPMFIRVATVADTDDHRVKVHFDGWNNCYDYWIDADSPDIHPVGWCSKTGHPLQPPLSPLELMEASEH

D381A 3MBT = target: T2, D381A 3MBT (Homo sapiens, UniProt Q96JM7, D381A); test: ITC, domain 2 mutant; conditions: domain 2 binding pocket mutant
T2 sequence (Q96JM7 225-555 D381A): T1 sequence (Q96JM7 225-555) with D157A

[2] = target: T3, GFP-FLMBT (full length L3MBTL3) (Homo sapiens, UniProt Q96JM7); test: FRAP of GFP-FLMBT; format: cell-based; conditions: lesser extent than GFP-3MBT
T3 sequence (Q96JM7 1-755 isoform Q96JM7-2): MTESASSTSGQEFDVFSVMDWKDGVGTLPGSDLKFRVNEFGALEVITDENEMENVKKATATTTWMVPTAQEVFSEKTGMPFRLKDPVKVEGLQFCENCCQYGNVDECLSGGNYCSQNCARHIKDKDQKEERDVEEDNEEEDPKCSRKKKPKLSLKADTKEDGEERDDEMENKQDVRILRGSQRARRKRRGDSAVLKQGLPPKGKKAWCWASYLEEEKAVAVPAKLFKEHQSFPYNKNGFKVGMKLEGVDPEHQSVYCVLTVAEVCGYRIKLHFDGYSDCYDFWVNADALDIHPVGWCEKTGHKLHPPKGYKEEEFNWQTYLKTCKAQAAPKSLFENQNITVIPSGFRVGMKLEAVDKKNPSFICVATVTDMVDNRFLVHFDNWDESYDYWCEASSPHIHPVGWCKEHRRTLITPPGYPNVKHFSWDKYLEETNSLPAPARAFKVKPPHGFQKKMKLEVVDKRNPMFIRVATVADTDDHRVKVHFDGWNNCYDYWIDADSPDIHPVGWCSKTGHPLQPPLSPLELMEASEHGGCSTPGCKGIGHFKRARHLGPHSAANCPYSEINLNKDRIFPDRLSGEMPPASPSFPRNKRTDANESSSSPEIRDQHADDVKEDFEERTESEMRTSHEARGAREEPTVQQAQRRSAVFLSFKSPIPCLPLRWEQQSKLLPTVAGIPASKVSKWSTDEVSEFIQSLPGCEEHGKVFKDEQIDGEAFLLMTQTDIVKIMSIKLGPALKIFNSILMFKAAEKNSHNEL

[3] = target: T4, GFP-FLMBT foci in 293 or U2OS cells (Homo sapiens, UniProt Q96JM7); test: GFP-FLMBT nuclear foci formation; format: cell-based; conditions: N-terminally tagged full length L3MBTL3
T4 sequence (Q96JM7 1-755 isoform Q96JM7-2): T3 sequence (Q96JM7 1-755 isoform Q96JM7-2)

[4] = test system: Histone demethylases (15 targets); test: Lysine demethylase selectivity, differential scanning fluorimetry; format: binding
hM1 = target: T5, hM1 (Homo sapiens, UniProt P11229); test: M1 Ca2+ mobilization functional assay; format: cell-based
T5 sequence (P11229 1-460): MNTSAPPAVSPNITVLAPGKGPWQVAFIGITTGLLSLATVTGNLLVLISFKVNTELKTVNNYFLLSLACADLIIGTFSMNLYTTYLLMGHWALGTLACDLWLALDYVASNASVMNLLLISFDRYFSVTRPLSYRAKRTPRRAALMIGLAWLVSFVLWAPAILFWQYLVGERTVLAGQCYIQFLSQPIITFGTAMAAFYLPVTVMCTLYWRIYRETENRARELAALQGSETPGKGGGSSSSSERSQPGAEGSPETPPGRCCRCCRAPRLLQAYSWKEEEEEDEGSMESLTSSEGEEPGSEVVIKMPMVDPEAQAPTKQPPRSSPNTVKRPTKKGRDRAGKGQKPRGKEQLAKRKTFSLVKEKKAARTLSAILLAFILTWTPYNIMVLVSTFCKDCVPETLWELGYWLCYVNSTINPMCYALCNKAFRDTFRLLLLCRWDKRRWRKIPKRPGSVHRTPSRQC

[5] = target: T6, flag-FLMBT / BCLAF1 interaction (Homo sapiens, UniProt Q96JM7); test: Co-immunoprecipitation of BCLAF1 with flag-FLMBT; format: cell-based; conditions: 1 μM, 18 hours, HEK293 cells
T6 sequence (Q96JM7 1-755 isoform Q96JM7-2): T3 sequence (Q96JM7 1-755 isoform Q96JM7-2)

D274A 3MBT = target: T7, D274A 3MBT (Homo sapiens, UniProt Q96JM7, D274A); test: ITC, domain 1 mutant; format: binding
T7 sequence (Q96JM7 225-555 D274A): T1 sequence (Q96JM7 225-555) with D50A

[6] = target: T8, GFP-3MBT (L3MBTL3 MBT domains) in HEK293 cells (Homo sapiens, UniProt Q96JM7); test: FRAP of GFP-3MBT; format: cell-based
T8 sequence (Q96JM7 200-530 isoform Q96JM7-2 limits assumed): T1 sequence (Q96JM7 225-555)

[7] = test system: Bromodomains (12 targets); test: Bromodomain selectivity, differential scanning fluorimetry; format: binding; conditions: at 10 µM versus 12 targets
HEK293T/17 cells = test: CellTiter-Glo luminescent cell viability assay; format: cell-based, human; conditions: up to 100 µM, 24 hours
[8] = target: T9, flag-3MBT / BCLAF1 interaction (Homo sapiens, UniProt Q96JM7); test: Co-immunoprecipitation of BCLAF1 with flag-3MBT; format: cell-based; conditions: 1 μM, 18 hours, HEK293 cells
T9 sequence (Q96JM7 225-555 limits assumed): T1 sequence (Q96JM7 225-555)

[9] = test system: G9a, EHMT1, SUV39H2, PRMT3, SETD7, SETD8, DNMT1, MLL, PRC2, PRMT5; test: Histone methyltransferase selectivity, radioactive SAM methyl transfer; format: biochemical
L3MBTL3 (3MBT) [10] = target: T10, L3MBTL3 (3MBT) (Homo sapiens, UniProt Q96JM7); test: H4K20me2 peptide pull-down competition; conditions: increasing concentrations
T10 sequence (Q96JM7 168-555 limits assumed): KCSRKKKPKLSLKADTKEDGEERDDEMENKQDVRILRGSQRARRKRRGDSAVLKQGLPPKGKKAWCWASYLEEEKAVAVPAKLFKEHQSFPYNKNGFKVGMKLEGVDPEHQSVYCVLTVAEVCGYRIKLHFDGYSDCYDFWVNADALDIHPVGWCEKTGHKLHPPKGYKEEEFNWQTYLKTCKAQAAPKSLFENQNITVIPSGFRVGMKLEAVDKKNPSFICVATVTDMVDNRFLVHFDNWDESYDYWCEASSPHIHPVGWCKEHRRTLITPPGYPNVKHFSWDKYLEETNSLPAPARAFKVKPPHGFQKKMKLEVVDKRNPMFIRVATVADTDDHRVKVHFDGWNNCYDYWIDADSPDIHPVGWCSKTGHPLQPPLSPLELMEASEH

53BP1 = 53BP1 (Homo sapiens, UniProt Q12888); test: H4K20me2 peptide pull-down competition; conditions: increasing concentrations
Chain of 53BP1 (Q12888 1459-1634): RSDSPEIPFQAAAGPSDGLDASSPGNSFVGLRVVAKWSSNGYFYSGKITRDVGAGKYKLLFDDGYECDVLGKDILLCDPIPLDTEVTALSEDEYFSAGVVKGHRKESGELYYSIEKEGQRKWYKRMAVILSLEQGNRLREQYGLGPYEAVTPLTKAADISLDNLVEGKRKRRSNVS

H277A 3MBT = target: T11, H277A 3MBT (Homo sapiens, UniProt Q96JM7, H277A); test: ITC, H277A mutant; format: binding; conditions: relative to wild-type
T11 sequence (Q96JM7 225-555 H277A): T1 sequence (Q96JM7 225-555) with H53A

hM2 = target: T12, hM2 (Homo sapiens, UniProt P08172); test: M2 cAMP biosensor functional assay; format: cell-based
T12 sequence (P08172 1-466): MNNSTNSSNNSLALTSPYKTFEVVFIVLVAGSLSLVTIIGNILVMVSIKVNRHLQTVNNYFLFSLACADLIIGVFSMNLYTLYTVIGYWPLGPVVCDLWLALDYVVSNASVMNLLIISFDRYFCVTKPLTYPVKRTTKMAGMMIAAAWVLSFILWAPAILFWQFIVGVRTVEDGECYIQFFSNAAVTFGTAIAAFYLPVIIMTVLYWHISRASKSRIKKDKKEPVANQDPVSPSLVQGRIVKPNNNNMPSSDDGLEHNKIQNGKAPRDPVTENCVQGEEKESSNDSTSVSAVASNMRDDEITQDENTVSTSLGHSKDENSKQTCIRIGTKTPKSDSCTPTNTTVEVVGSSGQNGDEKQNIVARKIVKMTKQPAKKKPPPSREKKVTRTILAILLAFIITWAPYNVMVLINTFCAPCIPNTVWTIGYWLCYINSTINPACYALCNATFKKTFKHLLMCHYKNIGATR

Row | displacement of H4K20me2 from L3MBTL3 by AlphaScreen, in words (L3MBTL3 (3MBT) [1]) | mobility of GFP-FLMBT by FRAP, in words [2] | Tm shift, lysine demethylases [4] | agonist activity, M1 (hM1) | binding diminished relative to wildtype, D274A 3MBT (D274A 3MBT) | EC50 [6] | activity against panel of histone methyltransferases, in words [9] | antagonism of L3MBTL3 (3MBT) H4K20me2 pull-down, in words (L3MBTL3 (3MBT) [10]) | binding to H277A 3MBT by ITC, in words (H277A 3MBT) | agonist activity, M2 (hM2) | Compound | binding to D381A 3MBT by ITC, in words (D381A 3MBT) | effect on GFP-FLMBT foci formation, in words [3] | interaction between flag-FLMBT and BCLAF1, in words [5] | Tm shift, bromodomains [7] | cytotoxicity (CellTiter-Glo cell viability) (HEK293T/17 cells) | interaction between flag-3MBT and BCLAF1, in words [8] | antagonism of 53BP1 H4K20me2 pull-down, in words (53BP1)
1 | effectively displaces H4K20me2 | – | – | – | – | – | – | – | – | – | BCLAF1 Kme peptide: K445me containing BCLAF1 peptide (residues 438-452) (YKSKVSLK(Me)GNRESDG) | – | – | – | – | – | – | –
2 | – | found to increase | < 0.5 °C | no agonist activity | about 30 fold | 50 to 100 nM | inactive | nanomolar potency | marked loss of affinity | no agonist activity | O=C(c1ccc(C(=O)N2CCC(N3CCCC3)CC2)c(Nc2ccccc2)c1)N1CCC(N2CCCC2)CC1 [UNC1215] | completely abolished; also recorded: completely abrogates binding | relatively ineffective at inhibiting foci formation; also recorded: could no longer be disrupted | reduced to a lesser extent; also recorded: reduces the interaction | < 0.5 °C | no observable level of cytotoxicity | substantially reduced; also recorded: disrupts the interaction | much weaker affinity; also recorded: micromolar antagonism
